According to patent publication US12492163B2, “9H-fluorene derivatives or their pharmaceutically acceptable salts” (priority 2020, dated 2025):
pIC50: −log10 of the molar value.

Tests used:
Assay type in all cases: biochemical
[1] = biological target: horse plasma butyrylcholinesterase (eqBuChE) (Equus caballus (Horse), UniProt P81908); test: Ellman's test, inhibition of horse plasma butyrylcholinesterase
Experimental: (§1) The spectrophotometric Ellman's test [Ellman et al.] modified for assays in 96-well plates was used to test the activity. Reagents: 5,5′-dithiobis-(2-nitrobenzoic acid) (DTNB), eqBuChE and butyrylthiocholine iodide (BTC) were purchased from Sigma-Aldrich (Steinheim, Germany). hBuChE was from Vivonics (Bedford, MA, USA). The enzymes were prepared by dissolving in demineralized water to a concentration of 0.384 U/ml. Stock solutions of test compounds were prepared by dissolving in DMSO to a concentration of 0.0034 M. They were then diluted with water to obtain the appropriate concentrations in the wells. In the first step of the test, 25 μl of test compound (or DMSO/water mixture at the appropriate ratio for blank samples) was incubated in 0.1 M phosphate buffer (200 μl, pH=8.0) with DTNB (20 μl; 0.0025M) and with the appropriate enzyme (20 μl; eqBuChE or hBuChE) at 25° C. (animal enzyme) or 36° C. (human enzyme). After a 5 minutes incubation period, 20 μl of BTC solution (0.00375 M) was added. After another 5 minutes, the changes in absorbance of the solutions were measured at 412 nm using a multifunctional microplate reader (EnSpire Multimode; PerkinElmer; Waltham, MA, USA). All compounds were tested at a screening concentration of 10 μM (eqBuChE) or 1 μM (hBuChE). The percentage of enzyme inhibition was calculated from the equation 100-(S/B)×100, where S and B were the enzymatic activity in the test sample well and in the well without sample, respectively. […] All reactions were performed in triplicate. IC50 values were calculated using non-linear regression (GraphPad Prism 5 [GraphPad Software, San Diego, CA, USA 5.00]) for the percentage of enzyme inhibition against the inhibitor concentration used. Tacrine and donepezil were used as reference compounds.

[2] = biological target: human plasma butyrylcholinesterase (hBuChE) (Homo sapiens (Human), UniProt P06276); test: Ellman's test, inhibition of human plasma butyrylcholinesterase; conditions: for inhibition at 1 µM: 1 μM inhibitor concentration, read-out: hBuChE % inh
Experimental: as §1

[3] = biological target: human recombinant beta-secretase (hBACE1) (Homo sapiens (Human), UniProt P56817); test: FRET assay, inhibition of human recombinant beta-secretase; conditions: for inhibition at 50 µM: 50 μM inhibitor concentration, read-out: hBACE-1 % inh; for pIC50: read-out: hBACE-1 IC50
Experimental: The FRET assay [Vassar, et al.] was used to test activity using 384-well black plates and a microplate reader (EnSpire Multimode; PerkinElmer; Waltham, MA, USA). The test was purchased from Life Technologies Polska Sp. z o.o. (Warsaw, Poland). […] Stock solutions of test compounds were prepared in DMSO and then further diluted with assay buffer (50 mM sodium acetate; pH 4.5) to the appropriate concentrations in the wells. In the first step of the test, 10 μl of the substrate (Rh-[…] quencher, based on the so-called Swedish APP mutation) was mixed with 10 μl of the test compound (or assay buffer; for blank sample). The enzyme reaction was initiated by adding 10 μl of enzyme (hBACE1, 1 U/ml). The reaction mixture was incubated at 25° C. for 60 minutes, then 10 μL of Stop solution (2.5 M sodium acetate) was added. After stopping the reaction, fluorescence was measured at 576 nm. The percentage of enzyme inhibition was calculated from the formula [1−(S60−S0)/(C60−C0)]×100, where S0 and S60 are the fluorescence of the test sample (containing the enzyme, substrate and test compound) at the start of the reaction and after 60 minutes, respectively, whereas C0 and C60 were analogous fluorescence intensities in the blank samples (containing enzyme, substrate and buffer). All test compounds were tested at a concentration of 50 μM in triplicate. […] A BACE1 IV inhibitor (Calbiochem, Merck; Nottingham, UK) [Stachel et al.] was used as a reference compound. […] IC50 values for all test compounds were calculated using non-linear regression (GraphPad Prism 5 [GraphPad Software, San Diego, CA, USA 5.00]) for the percentage of enzyme inhibition against the inhibitor concentration used.

[4] = biological target: Recombinant human Aβ1-42 peptide (Homo sapiens (Human), UniProt P05067); test: Thioflavin T test, antiaggregation activity against beta-amyloid; conditions: 10 μM test compound, 1.5 μM Aβ1-42; read-out: inh. Aβ aggr. % inh
Experimental: The thioflavin T test [Levine III] was used for the determinations. Recombinant human Aβ1-42 peptide (HFIP pretreated, Merck Millipore, Darmstadt, Germany) was dissolved in DMSO to form a 75 μM stock solution. The solution was further diluted in HEPES buffer (150 mM HEPES, pH 7.4, 150 mM NaCl) to a concentration of 7.5 μM. Then, the Aβ1-42 solution was added to the test compounds (black 96-well plates were used) and diluted with thioflavin T solution (10 μM final concentration). The final mixture contained 1.5 μM Aβ1-42, 10 μM test compound, and 3% of DMSO. Fluorescence was measured every 300 s (excitation wavelength was 440 nm, emission wavelength was 490 nm) with continuous mixing between measurements. A multifunction microplate reader (Synergy H4; BioTek Instruments, Inc., Winooski, VT, USA) was used to measure the fluorescence. Fluorescence started increasing after approximately 4 hours, plateaued after 20 hours and remained virtually unchanged for the next 28 hours of incubation. The plateau-phase fluorescence intensities (in the presence and absence of test compounds) were averaged and the mean fluorescence values for the respective wells at t=0 h were subtracted from them. […] IC50 values were calculated using non-linear regression (GraphPad Prism 5 [GraphPad Software, San Diego, CA, USA 5.00]) for the percentage of aggregation inhibition against the inhibitor concentration used.

Sequence of horse plasma butyrylcholinesterase (eqBuChE) (P81908 whole entry): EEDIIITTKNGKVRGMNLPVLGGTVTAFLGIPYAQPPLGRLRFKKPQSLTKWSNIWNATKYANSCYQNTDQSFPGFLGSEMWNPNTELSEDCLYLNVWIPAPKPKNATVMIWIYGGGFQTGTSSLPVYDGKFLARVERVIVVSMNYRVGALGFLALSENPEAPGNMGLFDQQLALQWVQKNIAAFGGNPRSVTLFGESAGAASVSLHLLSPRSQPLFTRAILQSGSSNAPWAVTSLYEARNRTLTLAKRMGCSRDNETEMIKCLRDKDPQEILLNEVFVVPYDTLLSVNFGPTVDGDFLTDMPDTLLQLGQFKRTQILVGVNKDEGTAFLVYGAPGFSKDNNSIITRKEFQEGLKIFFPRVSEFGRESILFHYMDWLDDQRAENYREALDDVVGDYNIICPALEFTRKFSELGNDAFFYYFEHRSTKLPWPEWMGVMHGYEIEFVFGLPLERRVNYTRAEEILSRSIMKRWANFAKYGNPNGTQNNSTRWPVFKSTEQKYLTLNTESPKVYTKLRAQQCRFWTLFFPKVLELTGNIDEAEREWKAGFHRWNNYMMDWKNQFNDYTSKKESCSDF
Sequence of human recombinant beta-secretase (hBACE1) (P56817 46-501): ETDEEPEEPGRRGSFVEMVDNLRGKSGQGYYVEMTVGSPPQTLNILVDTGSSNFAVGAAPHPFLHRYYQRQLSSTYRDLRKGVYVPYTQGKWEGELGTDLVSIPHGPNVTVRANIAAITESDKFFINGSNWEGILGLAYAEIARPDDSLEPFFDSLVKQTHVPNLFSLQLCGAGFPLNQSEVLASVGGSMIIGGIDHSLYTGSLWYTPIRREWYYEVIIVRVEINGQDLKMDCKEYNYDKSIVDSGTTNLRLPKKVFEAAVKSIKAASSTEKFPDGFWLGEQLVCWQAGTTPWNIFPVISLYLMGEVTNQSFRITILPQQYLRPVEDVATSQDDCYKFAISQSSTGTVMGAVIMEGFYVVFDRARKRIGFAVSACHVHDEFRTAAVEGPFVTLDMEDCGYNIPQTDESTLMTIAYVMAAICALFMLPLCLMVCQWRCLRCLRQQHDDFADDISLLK
Sequence of Recombinant human Aβ1-42 peptide (P05067 672-713): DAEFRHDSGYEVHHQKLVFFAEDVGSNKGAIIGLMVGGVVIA
Sequence of human plasma butyrylcholinesterase (hBuChE) (P06276 29-602): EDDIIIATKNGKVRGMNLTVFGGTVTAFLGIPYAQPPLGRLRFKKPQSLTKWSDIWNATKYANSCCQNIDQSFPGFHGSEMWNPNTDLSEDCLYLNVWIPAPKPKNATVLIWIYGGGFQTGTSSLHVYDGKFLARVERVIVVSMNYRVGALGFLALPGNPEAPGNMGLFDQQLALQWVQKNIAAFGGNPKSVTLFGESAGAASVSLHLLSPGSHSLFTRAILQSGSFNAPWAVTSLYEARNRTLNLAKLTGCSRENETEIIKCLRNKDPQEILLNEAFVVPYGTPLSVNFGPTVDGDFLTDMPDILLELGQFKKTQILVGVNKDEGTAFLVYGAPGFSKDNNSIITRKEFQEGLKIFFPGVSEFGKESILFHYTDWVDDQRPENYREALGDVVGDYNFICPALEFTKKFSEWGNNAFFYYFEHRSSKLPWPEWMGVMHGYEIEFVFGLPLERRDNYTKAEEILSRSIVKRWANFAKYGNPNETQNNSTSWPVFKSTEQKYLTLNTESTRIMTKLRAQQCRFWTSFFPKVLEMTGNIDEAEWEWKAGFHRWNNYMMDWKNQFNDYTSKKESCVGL

Row | Structure (SMILES) | pIC50 [1] | inhibition at 1 µM [2] [%] | inhibition at 50 µM [3] [%] | inhibition at 10 µM [4] [%] | pIC50 [2] | pIC50 [3]
1 | CC(C)(C)NC[C@H](O)[C@H](Cc1ccccc1)NC1c2ccccc2-c2ccccc21 [Compound 12, (2S,3S)-3-((9H-fluoren-9-yl)amino)-1-(tert-butylamino)-4-phenylbutan-2-ol] | 5.31 | 58.8 | 48.7 | 67.2 |  | 
2 | CC(C)c1cccc(CNC[C@@H](O)[C@H](Cc2ccccc2)NC2c3ccccc3-c3ccccc32)c1 [Compound 4, (2R,3S)-3-((9H-fluoren-9-yl)amino)-1-((3-isopropylbenzyl)amino)-4-phenylbutan-2-ol] | 6.29 |  |  | 83.7 | 6.31 | 5.41
3 | CC(C)(C)CNC[C@@H](O)[C@H](Cc1ccccc1)NC1c2ccccc2-c2ccccc21 [Compound 13, (2R,3S)-3-((9H-fluoren-9-yl)amino)-1-(neopentylamino)-4-phenylbutan-2-ol] | 5.93 | 61.3 |  | 80.2 |  | 5.07
4 | CC(C)(C)CNC[C@@H](O)[C@H](Cc1ccccc1)NC(=O)C1c2ccccc2-c2ccccc21 [Compound 26, N-((2S,3R)-3-hydroxy-4-(neopentylamino)-1-phenylbutan-2-yl)-9H-fluorene-9-carboxamide] | 5.96 | 61.1 | 54.5 | 39.5 |  | 
5 | O[C@@H](CNCC1CC1)[C@H](Cc1ccccc1)NC1c2ccccc2-c2ccccc21 [Compound 15, (2S,3S)-3-((9H-fluoren-9-yl)amino)-1-((cyclopropylmethyl)amino)-4-phenylbutan-2-ol] | 6.01 |  |  |  | 5.99 | 
6 | CC(C)(C)c1ccc(CNC[C@H](O)[C@H](Cc2ccccc2)NC(=O)C2c3ccccc3-c3ccccc32)cc1 [Compound 18, N-((2S,3S)-4-((4-(tert-butyl)benzyl)amino)-3-hydroxy-1-phenylbutan-2-yl)-9H-fluorene-9-carboxamide] | 5.91 | 55.6 |  | 63.5 |  | 5.95
7 | CC(C)(C)c1ccc(CNC[C@H](O)[C@H](Cc2ccccc2)NC2c3ccccc3-c3ccccc32)cc1 [Compound 5, (2S,3S)-3-((9H-fluoren-9-yl)amino)-1-((4-(tert-butyl)benzyl)amino)-4-phenylbutan-2-ol] | 6.10 | 62 |  | 75.6 |  | 5.18
8 | CC(C)(NC[C@@H](O)[C@H](Cc1ccccc1)NC(=O)C1c2ccccc2-c2ccccc21)c1ccccc1 [Compound 24, N-((2S,3R)-3-hydroxy-1-phenyl-4-((2-phenylpropan-2-yl)amino)butan-2-yl)-9H-fluorene-9-carboxamide] | 5.55 | 21.4 |  | 61 |  | 5.29
9 | O[C@@H](CNCc1ccccc1)[C@H](Cc1ccccc1)NC1c2ccccc2-c2ccccc21 [Compound 2, (2S,3S)-3-((9H-fluoren-9-yl)amino)-1-(benzylamino)-4-phenylbutan-2-ol] | 6.48 |  |  | 86.3 | 6.24 | 5.32
10 | C[C@H](NC[C@@H](O)[C@H](Cc1ccccc1)NC1c2ccccc2-c2ccccc21)c1ccccc1 [Compound 9, (2R,3S)-3-((9H-fluoren-9-yl)amino)-4-phenyl-1-(((S)-1-phenylethyl)amino)butan-2-ol] | 6.58 |  |  | 63 | 6.09 | 4.70
11 | CC(C)(NC[C@@H](O)[C@H](Cc1ccccc1)NC(=O)CC1c2ccccc2-c2ccccc21)c1ccccc1 [Compound 25, 2-(9H-fluoren-9-yl)-N-((2S,3R)-3-hydroxy-1-phenyl-4-((2-phenylpropan-2-yl)amino)-butan-2-yl)acetamide] | 5.90 | 71.7 |  | 63 |  | 5.30
12 | O=C(CC1c2ccccc2-c2ccccc21)N[C@@H](Cc1ccccc1)[C@H](O)CNCc1cccc(C(F)(F)F)c1 [Compound 21, 2-(9H-fluoren-9-yl)-N-((2S,3R)-3-hydroxy-1-phenyl-4-((3-(trifluoromethyl)benzyl)-amino)butan-2-yl)acetamide] | 5.69 | 54.3 |  | < 10 |  | 5.67
13 | O[C@H](CNCC(F)(F)F)[C@H](Cc1ccccc1)NC1c2ccccc2-c2ccccc21 [Compound 14, (2R,3S)-3-((9H-fluoren-9-yl)amino)-4-phenyl-1-((2,2,2-trifluoroethyl)amino)butan-2-ol] | 5.97 | 67.9 | 36.8 | 82.5 |  | 
14 | O[C@H](CNCc1cccc(C(F)(F)F)c1)[C@H](Cc1ccccc1)NC1c2ccccc2-c2ccccc21 [Compound 8, (2R,3S)-3-((9H-fluoren-9-yl)amino)-4-phenyl-1-((3-(trifluoromethyl)benzyl)amino)-butan-2-ol] | 6.12 |  |  | 72.4 | 6.14 | 5.50
15 | CC(C)(NC[C@@H](O)[C@H](Cc1ccccc1)NC1c2ccccc2-c2ccccc21)c1ccccc1 [Compound 10, (2R,3S)-3-((9H-fluoren-9-yl)amino)-4-phenyl-1-((2-phenylpropan-2-yl)amino)butan-2-ol] | 6.46 |  |  | 90.8 | 5.93 | 4.76
